Structures can show the parent of a compound that is named as a salt. Where two headings read alike, the source gives them in different places.
What was measured:
[1] = system: Aspergillus terreus engineered strains; type: cell-based; details: for effect on the yield of trans-Aconitic acid: additionally added at certain doses, shake flask; for increase of the yield of trans-Aconitic acid: 96 hours of shake flask fermentation
Description: Additional supplementation experiments were performed on differential amino acids and vitamins between high-yield and low-yield corn steep liquor powders. Based on the high-yield corn steep liquor powder medium, fermentation verification was performed by adding differential amino acid components and vitamin components separately. Each group was set up with three parallel replicates. After 96 hours of shake flask fermentation, the supernatant of the fermentation broth was collected for quantitative analysis using HPLC detection.

[2] = Hardness (Shore hardness tester, GB/T 531-2008); type: physicochemical; details: composite: 100 parts PVC resin (K value 60, polydispersity index 4), 30 parts plasticizer, 2 parts oxidized polyethylene wax, 5 parts octyltin maleate
Description: The aconitates and tributyl citrate prepared in the above examples and comparative examples were added as plasticizers to PVC resin to obtain PVC plastics. […] The above raw materials were mixed and prepared using the same mixing process to obtain finished PVC products. The performance tests were performed on different plasticizers and the obtained PVC finished products in the above examples and comparative examples. […] Three points were selected for each group of samples, each point was tested once, and a median value was taken. • 2. […] Compatibility: tests were performed using a water value method. Since water molecules are polar, the compatibility between the plasticizer and water can characterize the compatibility between the plasticizer and polar materials (PVC, PLA, and nitrile rubber). When a certain plasticizer has good compatibility with water, it has good compatibility with PVC, and vice versa. In the experiment, 2.5 g of plasticizer and 25 g of acetone were added to a beaker, titrated with a burette filled with deionized water, and agitated while titrating until turbidity appears, and the volume of deionized water consumed was recorded. • 4. Glass transition temperature (Tg): the glass transition temperature was tested using a dynamic mechanical analyzer. Test conditions: nitrogen was taken as the carrier gas, at a test temperature range of -40 to 80°C, a heating rate of 3°C/min, and a frequency of 1 Hz.

[3] = Compatibility (water value method); type: physicochemical; details: water value of the plasticizer, Table 9
Description: The aconitates and tributyl citrate prepared in the above examples and comparative examples were added as plasticizers to PVC resin to obtain PVC plastics. The PVC plastics include 100 parts of PVC resin, 35 parts of plasticizer, 2 parts of oxidized polyethylene wax, and 5 parts of octyltin maleate. The above raw materials were mixed and prepared using the same mixing process to obtain finished PVC products. The performance tests were performed on different plasticizers and the obtained PVC finished products in the above examples and comparative examples. […] Three points were selected for each group of samples, each point was tested once, and a median value was taken. • 2. […] Compatibility: tests were performed using a water value method. Since water molecules are polar, the compatibility between the plasticizer and water can characterize the compatibility between the plasticizer and polar materials (PVC, PLA, and nitrile rubber). When a certain plasticizer has good compatibility with water, it has good compatibility with PVC, and vice versa. In the experiment, 2.5 g of plasticizer and 25 g of acetone were added to a beaker, titrated with a burette filled with deionized water, and agitated while titrating until turbidity appears, and the volume of deionized water consumed was recorded. • 4. Glass transition temperature (Tg): the glass transition temperature was tested using a dynamic mechanical analyzer. Test conditions: nitrogen was taken as the carrier gas, at a test temperature range of -40 to 80°C, a heating rate of 3°C/min, and a frequency of 1 Hz.

[4] = Volatility loss rate (activated carbon method, HG/T 4458-2012); type: physicochemical; details: PVC composite with 30 parts plasticizer; 70°C for 24 h
Description: (§1) The above plasticizer is the mixed aconitates prepared in Example 37, and composite materials are prepared according to the above weight ratio and preparation method respectively. At the same time, dioctyl phthalate, tributyl citrate, tributyl aconitate and triisooctyl aconitate are respectively selected as plasticizers to prepare composite materials according to the above weight ratio and preparation method. The test method is the same as that in Test 2 except for the following: • 1. Volatility loss rate: tests were performed in accordance with HG/T 4458-2012 Plastics - Determination of Plasticizer Loss by Activated Carbon Method at a test temperature of 70°C for 24 h. • 2. Water extraction rate: tests were performed in accordance with the standard ISO 175-2011 Test Method for Determination of Immersion Effects of Plastics in Liquid Chemicals at room temperature for 72 h, with deionized water as the extraction solvent. • 3. Ethanol extraction rate: tests were performed in accordance with the standard ISO 175-2011 Test Method for Determination of Immersion Effects of Plastics in Liquid Chemicals at room temperature for 72 h, with ethanol as the extraction solvent. • 4. Petroleum ether extraction rate: tests were performed in accordance with the standard ISO 175-2011 Test Method for Determination of Immersion Effects of Plastics in Liquid Chemicals at room temperature for 72 h, with petroleum ether as the extraction solvent. • 5. Migration rate: tests were performed in accordance with HG/T 4458-2012 Determination of Plasticizer Migration in Plastics at a test temperature of 50°C for 48 h. The materials of absorbent sheets are polyethylene (PE) without additives and standard natural rubber (NR).

[5] = Water extraction rate (ISO 175-2011); type: physicochemical; details: PVC composite with 30 parts plasticizer; room temperature, 72 h, deionized water
Description: as §1

[6] = Ethanol extraction rate (ISO 175-2011); type: physicochemical; details: PVC composite with 30 parts plasticizer, room temperature, 72 h
Description: as §1

[7] = Petroleum ether extraction rate (ISO 175-2011); type: physicochemical; details: PVC composite with 30 parts plasticizer, room temperature, 72 h
Description: as §1

[8] = Plasticizer migration rate to PE (HG/T 4458-2012); type: physicochemical; details: PVC composite with 30 parts plasticizer; 50°C for 48 h
Description: as §1

[9] = Plasticizer migration rate to NR (HG/T 4458-2012); type: physicochemical; details: PVC composite with 30 parts plasticizer; 50°C for 48 h
Description: as §1

[10] = Tensile properties (GB/T 1040-2006): tensile modulus at 100%, elongation at break, elastic modulus; type: physicochemical; details: PVC composite with 30 parts plasticizer, Table 9
[11] = Glass transition temperature (dynamic mechanical analyzer); type: physicochemical; details: PVC composite with 30 parts plasticizer, Table 10
[12] = system: Aspergillus terreus engineered strains; type: cell-based; details: 30 L fermenter
Description: Meanwhile, the medium without added amino acids was used as a control to compare the fermentation yields. […] The primary and secondary seed media were: 150 g/L glucose monohydrate, 4 g/L ammonium sulfate, 2 g/L corn steep liquor powder, 0.4 g/L magnesium sulfate heptahydrate, 0.06 g/L ferrous sulfate heptahydrate, 0.01 g/L diammonium hydrogen phosphate, 40 mg/L zinc sulfate, 40 mg/L copper sulfate, and 0.5 g/L sodium chloride; no L-Trp or L-Met was added to the primary and secondary media. The tertiary fermentation medium was the same as the secondary seed medium, but L-Trp or L-Met was added. The control parameters of the 30 L fermenter were as follows: 300 to 480 rpm, dissolved oxygen (DO) level maintained at 25% to 29%, aeration rate at 20 L/min; DO control was linked during agitation. The control parameters of the 100 L fermenter were as follows: 250 to 280 rpm, DO controlled from 25 to 30% during agitation linkage, and aeration rate controlled f […].

[13] = system: Aspergillus niger engineered strains; details: shake flask, addition amount 0.12 g/L
Description: Nutritional factor optimization experiments were performed on the trans-Aconitic acid-producing Aspergillus niger engineered strains constructed in Example 1. Amino acid components were added for fermentation verification using the high-yield corn steep liquor powder medium as the basis.

[14] = system: Aspergillus niger engineered strains; details: 30 L fermenter, after 132 h of fermentation
Description: Fermentation was performed in a 30 L fermenter using the medium added with L-methionine. The control parameters were as follows: 300 to 480 rpm, DO level maintained at 25 to 29%, and aeration rate controlled at 20 L/min.

CC(O)C(=O)O (stereo not drawn) [lactic acid]
effect on the yield of trans-Aconitic acid [1]: varying degrees of decrease

NCC(=O)O [L-glycine]
effect on the yield of trans-Aconitic acid [1]: varying degrees of decrease

O=C(O)[C@@H]1CCCN1 [L-proline]
effect on the yield of trans-Aconitic acid [1]: varying degrees of decrease

CCCCCCCCOC(=O)c1ccccc1C(=O)OCCCCCCCC [Dioctyl Phthalate, dioctyl phthalate]
Hardness/Shore D [2]: 78 Shore D
Compatibility [3]: 7.1 mL
Volatility loss rate [4]: 0.96%
Water extraction rate [5]: 0.32%
Ethanol extraction rate [6]: 5.13%
Petroleum ether extraction rate [7]: 6.12%
Migration rate to PE [8]: 0.83%
Migration rate to NR [9]: 0.81%
Elastic modulus [10]: 487.3 MPa
Elongation at break [10]: 134.9%
Tensile modulus at 100% [10]: 15.1 MPa
Tg [11]: 48.5 °C

CC[C@H](C)[C@H](N)C(=O)O [L-isoleucine]
effect on the yield of trans-Aconitic acid [1]: varying degrees of decrease

O=C(O)CCCC[C@@H]1SC[C@@H]2NC(=O)N[C@@H]21 [biotin-vitamin B7, biotin]
increase of the yield of trans-Aconitic acid ([1]; addition of 0.11 g/L): 17.5%

N[C@@H](Cc1c[nH]c2ccccc12)C(=O)O [L-tryptophan]
increase of the yield of trans-Aconitic acid ([1]; addition of 0.099 g/L): 46.2%
increase of the yield of trans-Aconitic acid ([1]; addition of 0.2 g/L): 20.7%
yield of trans-Aconitic acid ([12]; 0.099 g/L added, at 60 h (26 g/L without adding amino acid)): 41.95 g/L

CCCCOC(=O)CC(O)(CC(=O)OCCCC)C(=O)OCCCC [Tributyl citrate, tributyl citrate]
Hardness/Shore D [2]: 77 Shore D
Compatibility [3]: 14.3 mL
Volatility loss rate [4]: 3.87%
Water extraction rate [5]: 1.16%
Ethanol extraction rate [6]: 4.96%
Petroleum ether extraction rate [7]: 8.91%
Migration rate to PE [8]: 2.12%
Migration rate to NR [9]: 2.71%
Elastic modulus [10]: 426.5 MPa
Elongation at break [10]: 146.3%
Tensile modulus at 100% [10]: 13.6 MPa
Tg [11]: 38.3 °C

NC(=O)CC[C@H](N)C(=O)O [L-glutamine]
effect on the yield of trans-Aconitic acid [1]: varying degrees of decrease

CC(C)C[C@H](N)C(=O)O [L-leucine]
increase of the yield of trans-Aconitic acid ([1]; addition of 0.125 g/L): 42%

CC(C)CCCCCOC(=O)C=C(CC(=O)OCCCCCC(C)C)C(=O)OCCCCCC(C)C [Triisooctyl aconitate, triisooctyl aconitate]
Hardness/Shore D [2]: 71 Shore D
Compatibility [3]: 10.9 mL
Volatility loss rate [4]: 0.38%
Water extraction rate [5]: 0.14%
Ethanol extraction rate [6]: 14.52%
Petroleum ether extraction rate [7]: 16.44%
Migration rate to PE [8]: 0.13%
Migration rate to NR [9]: 0.18%
Elastic modulus [10]: 397.1 MPa
Elongation at break [10]: 156.3%
Tensile modulus at 100% [10]: 16.1 MPa
Tg [11]: 43.5 °C

CSCC[C@H](N)C(=O)O [L-methionine]
increase of the yield of trans-Aconitic acid ([1]; addition of 0.115 g/L): 86.5%
final fermentation yield of trans-Aconitic acid ([12]; 0.115 g/L added (26 g/L without adding amino acid)): 65 g/L
yield of the recombinant engineered strains [13]: 31.76 g/L
TAA yield [14]: 60 g/L

CCCCOC(=O)C=C(CC(=O)OCCCC)C(=O)OCCCC [Tributyl aconitate, tributyl aconitate]
Hardness/Shore D [2]: 45 Shore D
Compatibility [3]: 16.7 mL
Volatility loss rate [4]: 1.08%
Water extraction rate [5]: 0.36%
Ethanol extraction rate [6]: 3.71%
Petroleum ether extraction rate [7]: 6.03%
Migration rate to PE [8]: 1.26%
Migration rate to NR [9]: 1.31%
Elastic modulus [10]: 130.5 MPa
Elongation at break [10]: 257.4%
Tensile modulus at 100% [10]: 8.2 MPa
Tg [11]: 28.1 °C

NCCCC[C@H](N)C(=O)O [L-lysine]
effect on the yield of trans-Aconitic acid [1]: varying degrees of decrease

From patent publication EP4715056A1, “BIO-BASED TRANS-ACONITATE, PREPARATION METHOD THEREFOR AND USE THEREOF” (Qingdao Institute of Bioenergy and Bioprocess Technology, …, priority 2023, dated 2024)
